Bounds are passed on as bounds.

For experiment [1], the target named is Beta-3 adrenergic receptor (Homo sapiens, UniProt P13945). Description: PDSP Secondary Binding target: ADRB3 - Compounds are tested at 10 uM concentration, plate are incubated at room temperature in the dark for 90 minutes. Reaction are stopped by vacuum filtration onto 0.3% polyethyleneimine soaked filter mats using Filtermate harvester. Scintillation cocktail is then melted onto microwave-dried filters on a hot plate and the radio activity is counted in Microbia counter.

Experiment [2] has as its target Sodium-dependent dopamine transporter (Homo sapiens, UniProt Q01959). Nature of the experiment: PDSP Secondary Binding target: SLC6A3 - Compounds are tested at 10 uM concentration, plate are incubated at room temperature in the dark for 90 minutes. Reaction are stopped by vacuum filtration onto 0.3% polyethyleneimine soaked filter mats using Filtermate harvester. Scintillation cocktail is then melted onto microwave-dried filters on a hot plate and the radio activity is counted in Microbia counter.

Experiment [3] addresses Translocator protein (Homo sapiens, UniProt P30536). Description: PDSP Secondary Binding target: TSPO - Compounds are tested at 10 uM concentration, plate are incubated at room temperature in the dark for 90 minutes. Reaction are stopped by vacuum filtration onto 0.3% polyethyleneimine soaked filter mats using Filtermate harvester. Scintillation cocktail is then melted onto microwave-dried filters on a hot plate and the radio activity is counted in Microbia counter.

Experiment [4] concerns the target D(3) dopamine receptor (Homo sapiens, UniProt P35462). Nature of the experiment: PDSP Secondary Binding target: DRD3 - Compounds are tested at 10 uM concentration, plate are incubated at room temperature in the dark for 90 minutes. Reaction are stopped by vacuum filtration onto 0.3% polyethyleneimine soaked filter mats using Filtermate harvester. Scintillation cocktail is then melted onto microwave-dried filters on a hot plate and the radio activity is counted in Microbia counter.

Experiment [5] deals with T1, Alpha-2A adrenergic receptor (Homo sapiens, UniProt P08913).
T1 sequence (P08913 whole entry): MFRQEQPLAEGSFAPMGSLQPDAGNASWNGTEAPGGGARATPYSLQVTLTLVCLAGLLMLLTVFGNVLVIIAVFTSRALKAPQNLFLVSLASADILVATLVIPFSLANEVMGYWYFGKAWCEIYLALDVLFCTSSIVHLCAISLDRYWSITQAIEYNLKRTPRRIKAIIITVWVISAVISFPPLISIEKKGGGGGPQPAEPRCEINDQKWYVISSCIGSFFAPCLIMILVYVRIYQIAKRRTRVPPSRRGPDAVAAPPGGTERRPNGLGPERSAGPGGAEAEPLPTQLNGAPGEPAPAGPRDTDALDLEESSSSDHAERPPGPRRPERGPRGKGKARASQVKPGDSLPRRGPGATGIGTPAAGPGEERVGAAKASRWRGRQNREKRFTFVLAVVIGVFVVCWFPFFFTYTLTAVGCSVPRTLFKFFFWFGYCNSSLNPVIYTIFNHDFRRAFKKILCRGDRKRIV
Description: PDSP Secondary Binding target: ADRA2A - Compounds are tested at 10 uM concentration, plate are incubated at room temperature in the dark for 90 minutes. Reaction are stopped by vacuum filtration onto 0.3% polyethyleneimine soaked filter mats using Filtermate harvester. Scintillation cocktail is then melted onto microwave-dried filters on a hot plate and the radio activity is counted in Microbia counter.

Experiment [6] deals with 5-hydroxytryptamine receptor 2B (Homo sapiens, UniProt P41595). Nature of the experiment: PDSP Secondary Binding target: HTR2B - Compounds are tested at 10 uM concentration, plate are incubated at room temperature in the dark for 90 minutes. Reaction are stopped by vacuum filtration onto 0.3% polyethyleneimine soaked filter mats using Filtermate harvester. Scintillation cocktail is then melted onto microwave-dried filters on a hot plate and the radio activity is counted in Microbia counter.

Experiment [7] has as its target T2, Alpha-2B adrenergic receptor (Homo sapiens, UniProt P18089).
T2 sequence (P18089 whole entry): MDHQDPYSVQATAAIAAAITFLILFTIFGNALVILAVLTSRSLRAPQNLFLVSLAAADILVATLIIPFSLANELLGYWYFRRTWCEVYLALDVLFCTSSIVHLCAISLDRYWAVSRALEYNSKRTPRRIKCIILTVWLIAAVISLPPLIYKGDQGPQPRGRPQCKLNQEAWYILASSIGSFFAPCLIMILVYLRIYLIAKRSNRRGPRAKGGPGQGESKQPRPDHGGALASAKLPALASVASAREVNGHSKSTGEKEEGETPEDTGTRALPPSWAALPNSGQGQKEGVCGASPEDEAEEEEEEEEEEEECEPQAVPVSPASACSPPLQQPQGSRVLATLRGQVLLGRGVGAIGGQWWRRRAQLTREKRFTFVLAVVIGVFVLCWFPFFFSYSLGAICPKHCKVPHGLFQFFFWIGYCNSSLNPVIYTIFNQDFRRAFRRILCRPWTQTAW
Description: PDSP Secondary Binding target: ADRA2B - Compounds are tested at 10 uM concentration, plate are incubated at room temperature in the dark for 90 minutes. Reaction are stopped by vacuum filtration onto 0.3% polyethyleneimine soaked filter mats using Filtermate harvester. Scintillation cocktail is then melted onto microwave-dried filters on a hot plate and the radio activity is counted in Microbia counter.

The target of experiment [8] is Sigma non-opioid intracellular receptor 1 (Homo sapiens, UniProt Q99720). Nature of the experiment: PDSP Secondary Binding target: SIGMAR1 - Compounds are tested at 10 uM concentration, plate are incubated at room temperature in the dark for 90 minutes. Reaction are stopped by vacuum filtration onto 0.3% polyethyleneimine soaked filter mats using Filtermate harvester. Scintillation cocktail is then melted onto microwave-dried filters on a hot plate and the radio activity is counted in Microbia counter.

Experiment [9] deals with Sigma intracellular receptor 2 (Homo sapiens, UniProt Q5BJF2). Description: PDSP Secondary Binding target: TMEM97 - Compounds are tested at 10 uM concentration, plate are incubated at room temperature in the dark for 90 minutes. Reaction are stopped by vacuum filtration onto 0.3% polyethyleneimine soaked filter mats using Filtermate harvester. Scintillation cocktail is then melted onto microwave-dried filters on a hot plate and the radio activity is counted in Microbia counter.

Experiment [10] concerns the target Sodium-dependent noradrenaline transporter (Homo sapiens, UniProt P23975). Description: PDSP Secondary Binding target: SLC6A2 - Compounds are tested at 10 uM concentration, plate are incubated at room temperature in the dark for 90 minutes. Reaction are stopped by vacuum filtration onto 0.3% polyethyleneimine soaked filter mats using Filtermate harvester. Scintillation cocktail is then melted onto microwave-dried filters on a hot plate and the radio activity is counted in Microbia counter.

For experiment [11], the target named is Sodium-dependent serotonin transporter (Homo sapiens, UniProt P31645). Nature of the experiment: PDSP Secondary Binding target: SLC6A4 - Compounds are tested at 10 uM concentration, plate are incubated at room temperature in the dark for 90 minutes. Reaction are stopped by vacuum filtration onto 0.3% polyethyleneimine soaked filter mats using Filtermate harvester. Scintillation cocktail is then melted onto microwave-dried filters on a hot plate and the radio activity is counted in Microbia counter.

For experiment [12], the target named is Mu-type opioid receptor (Homo sapiens, UniProt P35372). Description: PDSP Secondary Binding target: OPRM1 - Compounds are tested at 10 uM concentration, plate are incubated at room temperature in the dark for 90 minutes. Reaction are stopped by vacuum filtration onto 0.3% polyethyleneimine soaked filter mats using Filtermate harvester. Scintillation cocktail is then melted onto microwave-dried filters on a hot plate and the radio activity is counted in Microbia counter.

Experiment [13] deals with Kappa-type opioid receptor (Homo sapiens, UniProt P41145). Description: PDSP Secondary Binding target: OPRK1 - Compounds are tested at 10 uM concentration, plate are incubated at room temperature in the dark for 90 minutes. Reaction are stopped by vacuum filtration onto 0.3% polyethyleneimine soaked filter mats using Filtermate harvester. Scintillation cocktail is then melted onto microwave-dried filters on a hot plate and the radio activity is counted in Microbia counter.

For experiment [14], the target named is T3, Alpha-1B adrenergic receptor (Homo sapiens, UniProt P35368).
T3 sequence (P35368 whole entry): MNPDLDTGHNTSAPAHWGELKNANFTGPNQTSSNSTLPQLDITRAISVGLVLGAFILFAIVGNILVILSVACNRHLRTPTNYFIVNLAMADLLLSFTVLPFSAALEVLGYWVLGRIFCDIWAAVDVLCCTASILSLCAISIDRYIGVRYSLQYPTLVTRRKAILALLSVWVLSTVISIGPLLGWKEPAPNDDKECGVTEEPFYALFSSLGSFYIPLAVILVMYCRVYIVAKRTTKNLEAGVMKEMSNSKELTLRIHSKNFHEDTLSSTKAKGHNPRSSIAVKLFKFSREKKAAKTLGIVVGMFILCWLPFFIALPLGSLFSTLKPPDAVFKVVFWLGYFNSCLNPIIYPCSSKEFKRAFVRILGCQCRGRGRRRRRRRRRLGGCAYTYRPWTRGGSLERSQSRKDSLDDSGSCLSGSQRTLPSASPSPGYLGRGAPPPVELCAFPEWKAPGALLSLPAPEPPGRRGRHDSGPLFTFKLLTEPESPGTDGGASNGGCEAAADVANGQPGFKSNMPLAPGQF
Nature of the experiment: PDSP Secondary Binding target: ADRA1B - Compounds are tested at 10 uM concentration, plate are incubated at room temperature in the dark for 90 minutes. Reaction are stopped by vacuum filtration onto 0.3% polyethyleneimine soaked filter mats using Filtermate harvester. Scintillation cocktail is then melted onto microwave-dried filters on a hot plate and the radio activity is counted in Microbia counter.

In experiment [15] the target is T4, Alpha-1D adrenergic receptor (Homo sapiens, UniProt P25100).
T4 sequence (P25100 whole entry): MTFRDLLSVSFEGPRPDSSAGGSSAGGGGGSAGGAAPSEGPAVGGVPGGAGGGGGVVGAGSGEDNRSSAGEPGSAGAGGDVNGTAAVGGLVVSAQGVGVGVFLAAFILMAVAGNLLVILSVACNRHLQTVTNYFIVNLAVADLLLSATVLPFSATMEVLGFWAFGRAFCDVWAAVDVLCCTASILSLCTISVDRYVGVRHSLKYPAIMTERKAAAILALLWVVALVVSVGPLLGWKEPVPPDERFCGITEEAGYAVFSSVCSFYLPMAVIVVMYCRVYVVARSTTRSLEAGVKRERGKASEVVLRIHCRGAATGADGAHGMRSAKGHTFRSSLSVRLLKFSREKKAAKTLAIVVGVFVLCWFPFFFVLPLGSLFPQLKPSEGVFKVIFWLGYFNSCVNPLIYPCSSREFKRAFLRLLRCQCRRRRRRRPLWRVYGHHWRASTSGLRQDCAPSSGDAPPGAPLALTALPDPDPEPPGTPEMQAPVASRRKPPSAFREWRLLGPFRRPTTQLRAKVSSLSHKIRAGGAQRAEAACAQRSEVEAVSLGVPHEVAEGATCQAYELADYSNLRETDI
Description: PDSP Secondary Binding target: ADRA1D - Compounds are tested at 10 uM concentration, plate are incubated at room temperature in the dark for 90 minutes. Reaction are stopped by vacuum filtration onto 0.3% polyethyleneimine soaked filter mats using Filtermate harvester. Scintillation cocktail is then melted onto microwave-dried filters on a hot plate and the radio activity is counted in Microbia counter.

Sigma intracellular receptor 2, sequence (Q5BJF2 whole entry): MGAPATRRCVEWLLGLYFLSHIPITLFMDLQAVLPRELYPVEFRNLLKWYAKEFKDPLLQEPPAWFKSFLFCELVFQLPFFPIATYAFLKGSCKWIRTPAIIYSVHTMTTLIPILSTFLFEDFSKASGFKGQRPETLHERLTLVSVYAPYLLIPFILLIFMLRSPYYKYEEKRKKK
Beta-3 adrenergic receptor, sequence (P13945 whole entry): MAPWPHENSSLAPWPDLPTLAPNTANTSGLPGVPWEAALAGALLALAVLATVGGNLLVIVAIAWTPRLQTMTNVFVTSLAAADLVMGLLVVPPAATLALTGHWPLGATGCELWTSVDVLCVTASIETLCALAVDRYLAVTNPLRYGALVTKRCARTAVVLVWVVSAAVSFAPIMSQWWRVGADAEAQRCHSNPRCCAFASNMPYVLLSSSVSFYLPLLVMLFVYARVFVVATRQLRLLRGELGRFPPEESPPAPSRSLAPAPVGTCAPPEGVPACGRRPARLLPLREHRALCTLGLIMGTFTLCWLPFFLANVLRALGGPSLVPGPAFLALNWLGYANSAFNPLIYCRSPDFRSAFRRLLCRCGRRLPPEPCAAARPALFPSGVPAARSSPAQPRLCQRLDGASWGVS
Sigma non-opioid intracellular receptor 1, sequence (Q99720 whole entry): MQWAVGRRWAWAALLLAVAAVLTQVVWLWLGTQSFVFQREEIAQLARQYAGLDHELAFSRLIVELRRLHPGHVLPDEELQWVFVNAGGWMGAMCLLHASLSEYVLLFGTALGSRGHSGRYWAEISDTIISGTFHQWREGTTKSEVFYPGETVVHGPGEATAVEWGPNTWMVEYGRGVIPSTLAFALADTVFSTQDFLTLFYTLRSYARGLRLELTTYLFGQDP
Translocator protein, sequence (P30536 whole entry): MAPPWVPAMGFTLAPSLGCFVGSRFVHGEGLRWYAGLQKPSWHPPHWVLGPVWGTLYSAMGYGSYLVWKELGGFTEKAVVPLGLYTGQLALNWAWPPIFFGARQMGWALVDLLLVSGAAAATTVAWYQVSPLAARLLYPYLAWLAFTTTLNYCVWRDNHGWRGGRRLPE
Sodium-dependent dopamine transporter, sequence (Q01959 whole entry): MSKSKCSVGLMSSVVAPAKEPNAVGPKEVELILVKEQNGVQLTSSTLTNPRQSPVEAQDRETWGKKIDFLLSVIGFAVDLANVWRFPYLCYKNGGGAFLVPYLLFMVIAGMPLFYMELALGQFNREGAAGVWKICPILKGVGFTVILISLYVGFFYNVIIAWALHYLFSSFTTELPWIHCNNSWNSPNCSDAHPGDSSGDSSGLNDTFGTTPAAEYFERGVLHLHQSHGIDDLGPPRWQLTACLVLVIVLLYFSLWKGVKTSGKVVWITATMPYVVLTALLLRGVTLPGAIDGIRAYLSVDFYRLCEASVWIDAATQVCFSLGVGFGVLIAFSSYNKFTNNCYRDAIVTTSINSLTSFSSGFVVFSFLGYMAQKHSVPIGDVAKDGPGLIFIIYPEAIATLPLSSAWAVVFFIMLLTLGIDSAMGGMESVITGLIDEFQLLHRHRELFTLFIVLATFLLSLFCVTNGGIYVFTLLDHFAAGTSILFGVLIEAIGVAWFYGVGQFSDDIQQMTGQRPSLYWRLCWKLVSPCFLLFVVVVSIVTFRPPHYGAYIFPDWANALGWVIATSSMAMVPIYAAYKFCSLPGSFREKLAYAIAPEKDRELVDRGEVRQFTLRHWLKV
D(3) dopamine receptor, sequence (P35462 whole entry): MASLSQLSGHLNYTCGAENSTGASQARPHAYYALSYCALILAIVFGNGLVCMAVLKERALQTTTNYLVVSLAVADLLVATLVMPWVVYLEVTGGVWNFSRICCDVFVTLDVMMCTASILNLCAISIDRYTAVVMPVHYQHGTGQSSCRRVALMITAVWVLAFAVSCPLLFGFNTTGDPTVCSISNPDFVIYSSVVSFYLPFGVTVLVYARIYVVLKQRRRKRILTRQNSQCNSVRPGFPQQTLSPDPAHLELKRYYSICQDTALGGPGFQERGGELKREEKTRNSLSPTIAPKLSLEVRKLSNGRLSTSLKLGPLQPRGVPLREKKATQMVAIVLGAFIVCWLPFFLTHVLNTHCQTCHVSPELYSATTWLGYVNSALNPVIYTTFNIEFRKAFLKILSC
Sodium-dependent serotonin transporter, sequence (P31645 whole entry): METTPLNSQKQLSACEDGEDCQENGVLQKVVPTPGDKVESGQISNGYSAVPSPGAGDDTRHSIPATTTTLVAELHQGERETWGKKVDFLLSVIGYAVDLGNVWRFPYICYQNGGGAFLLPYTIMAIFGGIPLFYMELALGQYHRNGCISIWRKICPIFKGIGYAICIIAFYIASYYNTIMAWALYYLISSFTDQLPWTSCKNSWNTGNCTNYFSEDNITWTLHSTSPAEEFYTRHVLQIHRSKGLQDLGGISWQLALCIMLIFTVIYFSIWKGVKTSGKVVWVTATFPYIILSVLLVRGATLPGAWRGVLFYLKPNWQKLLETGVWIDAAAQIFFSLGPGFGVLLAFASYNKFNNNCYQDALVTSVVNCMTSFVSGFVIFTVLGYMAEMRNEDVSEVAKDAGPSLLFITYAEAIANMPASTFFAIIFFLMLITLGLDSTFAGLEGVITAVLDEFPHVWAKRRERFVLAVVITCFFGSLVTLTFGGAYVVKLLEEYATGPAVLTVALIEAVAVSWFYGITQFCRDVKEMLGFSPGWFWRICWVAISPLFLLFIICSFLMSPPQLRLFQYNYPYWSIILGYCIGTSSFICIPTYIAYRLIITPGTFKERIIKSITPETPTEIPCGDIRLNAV
5-hydroxytryptamine receptor 2B, sequence (P41595 whole entry): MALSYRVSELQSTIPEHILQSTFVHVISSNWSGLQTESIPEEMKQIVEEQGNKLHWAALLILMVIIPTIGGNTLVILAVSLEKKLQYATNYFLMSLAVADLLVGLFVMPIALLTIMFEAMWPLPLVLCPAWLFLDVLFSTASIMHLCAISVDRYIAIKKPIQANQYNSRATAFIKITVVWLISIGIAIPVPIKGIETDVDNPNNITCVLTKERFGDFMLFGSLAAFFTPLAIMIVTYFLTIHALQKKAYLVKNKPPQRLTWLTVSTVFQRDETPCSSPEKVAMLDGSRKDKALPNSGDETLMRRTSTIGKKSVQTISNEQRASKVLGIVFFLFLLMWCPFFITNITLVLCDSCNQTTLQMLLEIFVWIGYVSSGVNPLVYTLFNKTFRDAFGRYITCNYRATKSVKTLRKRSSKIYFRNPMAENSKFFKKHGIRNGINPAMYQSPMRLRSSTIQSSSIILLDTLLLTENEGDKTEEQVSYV
Kappa-type opioid receptor, sequence (P41145 whole entry): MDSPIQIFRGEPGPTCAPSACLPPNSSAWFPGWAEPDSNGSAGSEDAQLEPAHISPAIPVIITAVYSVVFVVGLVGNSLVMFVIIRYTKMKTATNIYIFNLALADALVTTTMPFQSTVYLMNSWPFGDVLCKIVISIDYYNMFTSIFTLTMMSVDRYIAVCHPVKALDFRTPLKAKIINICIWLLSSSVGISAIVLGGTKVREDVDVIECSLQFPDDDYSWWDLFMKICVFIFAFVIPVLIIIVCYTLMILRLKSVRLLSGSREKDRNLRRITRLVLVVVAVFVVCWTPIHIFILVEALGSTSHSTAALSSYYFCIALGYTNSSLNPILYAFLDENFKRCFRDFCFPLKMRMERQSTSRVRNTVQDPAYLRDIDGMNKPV
Sodium-dependent noradrenaline transporter, sequence (P23975 whole entry): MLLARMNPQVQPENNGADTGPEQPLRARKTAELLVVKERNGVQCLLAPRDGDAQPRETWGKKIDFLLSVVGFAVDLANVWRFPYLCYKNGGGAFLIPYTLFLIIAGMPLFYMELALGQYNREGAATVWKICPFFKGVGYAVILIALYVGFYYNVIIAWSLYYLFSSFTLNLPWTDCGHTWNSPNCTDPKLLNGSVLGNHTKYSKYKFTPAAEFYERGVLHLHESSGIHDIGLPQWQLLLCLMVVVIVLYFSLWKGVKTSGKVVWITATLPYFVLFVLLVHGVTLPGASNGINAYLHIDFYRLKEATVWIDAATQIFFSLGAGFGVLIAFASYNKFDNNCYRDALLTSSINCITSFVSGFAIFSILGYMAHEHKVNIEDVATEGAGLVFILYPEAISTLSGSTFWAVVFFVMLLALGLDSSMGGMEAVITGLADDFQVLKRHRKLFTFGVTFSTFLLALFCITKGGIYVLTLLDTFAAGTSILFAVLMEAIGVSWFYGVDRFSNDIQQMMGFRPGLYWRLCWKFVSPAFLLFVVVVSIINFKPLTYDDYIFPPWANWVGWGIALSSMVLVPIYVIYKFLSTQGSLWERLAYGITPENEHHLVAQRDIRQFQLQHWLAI
Mu-type opioid receptor, sequence (P35372 whole entry): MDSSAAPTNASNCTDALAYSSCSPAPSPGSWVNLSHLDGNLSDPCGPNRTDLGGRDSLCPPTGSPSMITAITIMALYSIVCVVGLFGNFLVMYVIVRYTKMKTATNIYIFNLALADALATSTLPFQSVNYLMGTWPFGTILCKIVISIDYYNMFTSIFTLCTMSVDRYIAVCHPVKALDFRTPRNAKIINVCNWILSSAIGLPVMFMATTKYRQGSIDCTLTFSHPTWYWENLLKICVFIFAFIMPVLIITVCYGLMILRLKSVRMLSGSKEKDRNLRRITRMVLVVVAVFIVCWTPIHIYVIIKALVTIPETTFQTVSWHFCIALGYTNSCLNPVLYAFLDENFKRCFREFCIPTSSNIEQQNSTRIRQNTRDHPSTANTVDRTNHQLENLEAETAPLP

Take `N#Cc1ccc(NC(=O)Nc2ccccc2Br)c2nn[nH]c12`: the Ki (usually the equilibrium dissociation constant of an inhibitor or competing ligand from its target) in [1] turned out to be 8660 nM; in experiment [2] it was 2850 nM; in experiment [3], 3030 nM.
In the case of `Cc1cc([C@@H](C)Nc2cccc(-c3cc(C)c(C(=O)N[C@@H](C)C(=O)O)c(C)c3)c2)ccc1Cl`, the Ki was greater than 10000 nM in experiment [1]; 1110 nM in [4]; 402 nM in experiment [2]; greater than 10000 nM in [5]; 2480 nM in experiment [6]; 1380 nM in experiment [3].
With `Cc1nc(C#Cc2ccnc(Cl)c2)c(C)n1-c1ccc(OC(F)(F)F)cc1`, the inhibitory constant (Ki) in experiment [1] was 6980 nM; in experiment [7] it was greater than 10000 nM; in experiment [8], 2690 nM; in experiment [3] it was 1950 nM; in [9], 1710 nM.
On to `C[C@@H](NCCc1ccc(O)cc1)[C@@H](O)c1ccc(O)cc1` (relative stereo), for which the Ki turned out to be 2580 nM in [10]; 3730 nM in [1]; 4050 nM in [11]; 587 nM in [8]; 2670 nM in [9]; 7850 nM in experiment [12].
Take `Cc1csc2c(N[C@@H](C)CN3CCN(S(=O)(=O)c4ccc(Cl)c(Cl)c4)CC3)ncnc12`: the inhibitory constant (Ki) was found to be 8880 nM in experiment [1]; 581 nM in experiment [4]; 494 nM in experiment [13]; 958 nM in [8]; 799 nM in experiment [3]; 2000 nM in [9].
For the molecule `Cc1c(OCc2cccc(-c3ccc(C(=O)O)cc3)c2)cc2c(c1C)C(=O)C(C1CCCC1)C2` (stereo not given), the Ki is 5050 nM in [1], greater than 10000 nM in experiment [11], greater than 10000 nM in [14] and greater than 10000 nM in experiment [15].

Values taken from ChEMBL document CHEMBL5442175, “EUbOPEN Chemogenomics Library - PDSP Secondary Binding” (2024).
